This experiment concerns Xenopus laevis oocytes. Description: Quantification of cholesterol content of oocytes (Amplex Red). It is filed as cell-based. Conditions: 15 mM for 30 min at 32°C; normalized to control oocytes. As for the experimental part:
The cell was then unclamped and removed from the electrophysiology rig and placed in an incubator at 32°C in a solution containing 15 mM MβCD for 30 min. The oocyte was then replaced in the electrophysiology rig and washed for 10 min in recording buffer, the voltage clamp was re-established, and the glycine transport currents were remeasured. […] Under these conditions, MβCD caused a 44% reduction in membrane cholesterol content, which is consistent with previous studies in oocytes (Fig 4) ([Santiago et al, 2001]; [Sadler & Jacobs, 2004]).
Figure 4. Cholesterol levels of control and MβCD-treated Xenopus laevis oocytes. Groups of six oocytes were incubated in 0 mM (control) or 15 mM MβCD for 30 min at 32°C. After incubation, oocytes were lysed in 1% Triton X-100 by vortexing and manually disrupting the membranes with forceps. Cell lysates were centrifuged, and the cholesterol content of the supernatant was quantified using the Amplex Red method. […]
Control and MβCD-treated oocytes were lysed in 1% Triton X-100 (Sigma-Aldrich) by vortexing and manually disrupting the membranes with forceps. […] The supernatant was then treated in accordance with the manufacturer’s protocol for the Amplex Red Cholesterol Assay Kit (Thermo Fisher Scientific) to quantify differences in cholesterol content.

methyl-β-cyclodextrin [MβCD]: the “Reduction in membrane cholesterol content” value is recorded as 44%.

Values taken from publication PMC9873984, “Membrane cholesterol regulates inhibition and substrate transport by the glycine transporter, GlyT2” (Life Science Alliance, 2023).
